In ChEMBL document CHEMBL1201862, “PubChem BioAssay data set” (2004):
Active and inactive are the calls of the source.

Experiments:
Cytochrome P450 2C9 = Cytochrome P450 2C9 (Homo sapiens, UniProt P11712)
Cytochrome P450 1A2 = target: T1, Cytochrome P450 1A2 (Homo sapiens, UniProt P05177);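 further: PubChem cytochrome P450 panel assay, CYP1A2 panel member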
T1 sequence (P05177 whole entry): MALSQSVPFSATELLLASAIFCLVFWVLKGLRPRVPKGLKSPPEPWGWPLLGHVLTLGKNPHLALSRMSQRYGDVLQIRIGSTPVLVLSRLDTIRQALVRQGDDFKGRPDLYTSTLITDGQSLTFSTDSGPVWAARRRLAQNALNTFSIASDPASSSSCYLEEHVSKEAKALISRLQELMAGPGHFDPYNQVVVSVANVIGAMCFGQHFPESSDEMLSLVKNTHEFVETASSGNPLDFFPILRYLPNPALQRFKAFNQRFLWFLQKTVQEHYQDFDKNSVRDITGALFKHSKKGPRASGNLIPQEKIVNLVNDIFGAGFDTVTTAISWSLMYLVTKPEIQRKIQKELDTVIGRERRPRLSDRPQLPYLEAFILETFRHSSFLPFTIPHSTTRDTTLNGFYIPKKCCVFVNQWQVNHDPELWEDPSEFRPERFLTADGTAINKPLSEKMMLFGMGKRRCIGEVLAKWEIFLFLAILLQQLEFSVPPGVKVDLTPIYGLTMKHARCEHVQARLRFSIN

[1] = target: Protein-tyrosine kinase 2-beta (Homo sapiens, UniProt Q14289);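 further: potency of inhibitors of PYK2 kinase phosphorylation of poly-GT substrate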
Cytochrome P450 2C19 = Cytochrome P450 2C19 (Homo sapiens, UniProt P33261); experiment: Cytochrome panel assay with activity outcomes. Panel member name: p450-cyp2c19 Compounds with AC50 equal or less than 10 uM are considered active; format: functional; conditions: read-out: AC50
[2] = viability loss in Vero cells – cytotoxicity control for Vif-APOBEC3G degradation inhibitor project, dose response (AID 1117358); format: functional; conditions: Vero
[3] = Luminescent dose response cell-based high throughput screening assay for inhibitors of the Janus kinase 2 mutant JAK2V617F. [Related pubchem assays: 1446 (Primary screen.), 1521 (Confirmation assay.), 1486 (Counter screen.)]; format: functional
[4] = cytotoxicity toward HT-29 cells – cell-based, CellTiter-Glo luminescence, IC50, dose response (AID 1117330); format: functional
[5] = glucagon-like peptide-1 release potency in STC-1, concentration-response, half-maximal inhibitory concentration in the STC-1 line (AID 1117345); format: functional, cell-based
[6] = Reduced DLD-1 viability, concentration-response, CellTiter-Glo luminescence (AID 1117352); format: functional
[7] = HCT116 cell viability decrease, GSK3B pretreatment – CellTiter-Glo, IC50, dose response (AID 1117339); format: functional; conditions: HCT-116
[8] = SNU-C1 cell viability reduction, dose response, CellTiter-Glo luminescence (AID 1117323); format: functional, cell-based
[9] = CellTiter-Glo luminescence survival assay, SW480 colon tumor line, concentration-response curve, half-maximal inhibitory concentration (AID 1117338); format: functional
[10] = RKO cell viability reduction, dose response, CellTiter-Glo luminescence (AID 1117322); format: functional
[11] = cytotoxicity toward Colo320 cells – cell-based, CellTiter-Glo luminescence, IC50, dose response (AID 1117334); format: functional; conditions: COLO 320
[12] = Potency on glucagon-like peptide 1 release, dose-response in NCI-H716 cell line, half maximal inhibitory concentration (AID 1117344); format: functional, cell-based
[13] = cytotoxicity toward HCT116 cells – cell-based, CellTiter-Glo luminescence, IC50, dose response (AID 1117332); format: functional; conditions: HCT-116
[14] = target: T2, Heat shock factor protein 1 (Mus musculus, UniProt P38532); experiment: enhancement of HSF1-driven luciferase signal – cell-based, NIH3T3, luminescence, dose retest, confirmation (AID 435004); format: functional;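 further: stress induced by proteasome inhibitor MG132 added 30 min after compound; luciferase reporter driven by HSF1 response element in NIH3T3 cells; actives raise luminescence as potentiators of the MG132 stress response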
T2 sequence (P38532 whole entry): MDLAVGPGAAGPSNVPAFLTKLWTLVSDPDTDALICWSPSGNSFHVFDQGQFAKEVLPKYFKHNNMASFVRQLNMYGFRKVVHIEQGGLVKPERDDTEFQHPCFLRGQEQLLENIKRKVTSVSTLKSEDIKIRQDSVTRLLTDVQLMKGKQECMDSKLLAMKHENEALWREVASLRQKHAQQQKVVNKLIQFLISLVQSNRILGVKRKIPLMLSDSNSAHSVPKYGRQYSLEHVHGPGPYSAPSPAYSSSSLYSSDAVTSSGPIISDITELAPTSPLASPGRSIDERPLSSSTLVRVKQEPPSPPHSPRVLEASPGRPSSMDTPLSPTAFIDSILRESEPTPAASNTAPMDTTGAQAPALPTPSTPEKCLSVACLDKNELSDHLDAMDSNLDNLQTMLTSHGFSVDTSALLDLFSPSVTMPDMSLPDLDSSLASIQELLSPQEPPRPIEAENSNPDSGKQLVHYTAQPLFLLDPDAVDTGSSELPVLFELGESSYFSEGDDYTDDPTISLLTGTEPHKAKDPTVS

[15] = target: T3, Histone-lysine N-methyltransferase NSD2 (Homo sapiens, UniProt O96028); format: biochemical
T3 sequence (O96028 whole entry): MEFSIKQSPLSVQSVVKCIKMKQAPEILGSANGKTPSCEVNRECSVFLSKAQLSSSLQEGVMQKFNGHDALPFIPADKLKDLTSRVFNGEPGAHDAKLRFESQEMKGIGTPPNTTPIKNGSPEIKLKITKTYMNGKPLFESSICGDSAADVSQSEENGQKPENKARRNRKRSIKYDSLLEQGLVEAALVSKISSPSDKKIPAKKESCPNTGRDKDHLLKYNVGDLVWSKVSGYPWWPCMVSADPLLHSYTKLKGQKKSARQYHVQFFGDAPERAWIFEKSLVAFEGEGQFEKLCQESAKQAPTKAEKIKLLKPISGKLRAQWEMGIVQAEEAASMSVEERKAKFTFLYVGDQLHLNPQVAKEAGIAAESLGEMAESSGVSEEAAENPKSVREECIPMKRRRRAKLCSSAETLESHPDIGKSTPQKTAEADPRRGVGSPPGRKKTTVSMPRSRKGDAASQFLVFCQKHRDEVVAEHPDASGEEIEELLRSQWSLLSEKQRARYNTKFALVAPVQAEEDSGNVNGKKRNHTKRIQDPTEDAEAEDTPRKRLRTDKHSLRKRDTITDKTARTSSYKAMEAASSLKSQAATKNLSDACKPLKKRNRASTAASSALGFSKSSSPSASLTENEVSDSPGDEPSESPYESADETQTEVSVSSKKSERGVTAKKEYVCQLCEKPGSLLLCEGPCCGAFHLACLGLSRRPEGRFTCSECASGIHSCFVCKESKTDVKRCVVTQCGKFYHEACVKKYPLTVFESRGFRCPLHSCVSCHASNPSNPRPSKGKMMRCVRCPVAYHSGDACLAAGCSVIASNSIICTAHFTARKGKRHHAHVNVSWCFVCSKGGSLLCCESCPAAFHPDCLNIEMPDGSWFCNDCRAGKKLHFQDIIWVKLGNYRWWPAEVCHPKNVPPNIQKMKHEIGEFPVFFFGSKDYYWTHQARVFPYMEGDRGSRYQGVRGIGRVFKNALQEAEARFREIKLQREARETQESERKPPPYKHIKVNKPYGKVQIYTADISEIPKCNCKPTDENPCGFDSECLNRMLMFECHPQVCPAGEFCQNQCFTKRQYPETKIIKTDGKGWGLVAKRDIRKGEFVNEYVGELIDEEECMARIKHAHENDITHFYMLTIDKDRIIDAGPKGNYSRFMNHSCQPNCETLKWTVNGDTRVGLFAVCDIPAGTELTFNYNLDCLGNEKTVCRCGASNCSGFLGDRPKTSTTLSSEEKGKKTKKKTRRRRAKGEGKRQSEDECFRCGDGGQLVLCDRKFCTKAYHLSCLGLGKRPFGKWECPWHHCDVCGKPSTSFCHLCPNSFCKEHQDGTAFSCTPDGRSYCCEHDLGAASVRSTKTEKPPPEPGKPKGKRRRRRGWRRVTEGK

[16] = target: Bifunctional protein GlmU (Mycobacterium tuberculosis, UniProt P9WMN3); experiment: Inhibitors of Mycobacterial Glucosamine-1-phosphate acetyl transferase (GlmU). Secondary screen.; parameters: species or system Mycobacterium tuberculosis H37Rv
[17] = target: DNA dC->dU-editing enzyme APOBEC-3A (Homo sapiens, UniProt P31941); experiment: Dose Response confirmation of small molecule APOBEC3A DNA Deaminase Inhibitors via a fluorescence-based single-stranded DNA deaminase assay. [Related pubchem assays (depositor defined):AID493011, AID493024]; format: functional
[18] = target: T4, Carboxy-terminal domain RNA polymerase II polypeptide A small phosphatase 1 (Homo sapiens, UniProt Q9GZU7); experiment: CTDSP1 inhibitors, concentration-response, biochemical, absorbance readout, ultra-high-throughput screen actives (AID 540297); format: functional
T4 sequence (Q9GZU7 whole entry): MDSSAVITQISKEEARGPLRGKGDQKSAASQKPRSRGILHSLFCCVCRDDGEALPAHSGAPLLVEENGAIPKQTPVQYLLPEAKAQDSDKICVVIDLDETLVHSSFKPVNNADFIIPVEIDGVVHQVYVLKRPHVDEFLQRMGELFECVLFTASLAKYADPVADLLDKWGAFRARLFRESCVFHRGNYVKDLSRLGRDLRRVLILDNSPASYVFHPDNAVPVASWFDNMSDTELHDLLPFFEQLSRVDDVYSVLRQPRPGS

[19] = target: T5, RNA-binding protein pos-1 (Caenorhabditis elegans, UniProt G5EF15); experiment: disruptors of C. elegans POS-1 RNA interaction – biochemical, fluorescence polarization, dose response (AID 1964);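 further: purified POS-1 fused to maltose binding protein made in E. coli; potency of compounds blocking POS-1 binding to fluorescent RNA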
T5 sequence (G5EF15 whole entry): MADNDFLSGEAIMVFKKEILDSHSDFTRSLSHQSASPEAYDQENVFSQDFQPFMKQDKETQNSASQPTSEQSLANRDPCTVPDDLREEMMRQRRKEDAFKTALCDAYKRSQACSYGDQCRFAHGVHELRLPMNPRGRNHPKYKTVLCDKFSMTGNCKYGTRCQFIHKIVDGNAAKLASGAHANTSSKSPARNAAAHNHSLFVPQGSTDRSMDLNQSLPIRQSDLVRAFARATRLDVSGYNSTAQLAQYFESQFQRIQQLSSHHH

[20] = target: DNA dC->dU-editing enzyme APOBEC-3G (Homo sapiens, UniProt Q9HC16); format: functional;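 further: Dose-response counterscreen measuring inhibition of APOBEC3G DNA deaminase activity, run while confirming APOBEC3A inhibitors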
[21] = target: T6, Mannose-6-phosphate isomerase (Homo sapiens, UniProt P34949); experiment: MPI enzyme activity inhibition – biochemical, fluorescence intensity, coupled assay, primary screen (AID 1209)
T6 sequence (P34949 whole entry): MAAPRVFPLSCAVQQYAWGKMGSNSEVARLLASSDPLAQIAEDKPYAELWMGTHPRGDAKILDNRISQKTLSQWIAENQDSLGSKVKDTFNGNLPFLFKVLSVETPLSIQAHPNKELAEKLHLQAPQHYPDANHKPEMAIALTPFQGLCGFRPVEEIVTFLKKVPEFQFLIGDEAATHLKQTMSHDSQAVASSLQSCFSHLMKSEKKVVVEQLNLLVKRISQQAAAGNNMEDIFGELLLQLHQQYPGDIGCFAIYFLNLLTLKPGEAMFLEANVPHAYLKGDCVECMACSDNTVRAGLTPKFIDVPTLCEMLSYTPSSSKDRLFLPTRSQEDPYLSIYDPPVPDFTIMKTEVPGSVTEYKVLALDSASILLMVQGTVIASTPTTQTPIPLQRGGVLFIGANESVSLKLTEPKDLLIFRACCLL

Leucine aminopeptidase = target: T7, Leucine aminopeptidase (Plasmodium falciparum 3D7, UniProt Q8IL11); experiment: P. falciparum M17LAP inhibitors, primary screen, biochemical, fluorogenic H-Leu-NHMec substrate, 1536-well (AID 1619); format: functional
T7 sequence (Q8IL11 whole entry): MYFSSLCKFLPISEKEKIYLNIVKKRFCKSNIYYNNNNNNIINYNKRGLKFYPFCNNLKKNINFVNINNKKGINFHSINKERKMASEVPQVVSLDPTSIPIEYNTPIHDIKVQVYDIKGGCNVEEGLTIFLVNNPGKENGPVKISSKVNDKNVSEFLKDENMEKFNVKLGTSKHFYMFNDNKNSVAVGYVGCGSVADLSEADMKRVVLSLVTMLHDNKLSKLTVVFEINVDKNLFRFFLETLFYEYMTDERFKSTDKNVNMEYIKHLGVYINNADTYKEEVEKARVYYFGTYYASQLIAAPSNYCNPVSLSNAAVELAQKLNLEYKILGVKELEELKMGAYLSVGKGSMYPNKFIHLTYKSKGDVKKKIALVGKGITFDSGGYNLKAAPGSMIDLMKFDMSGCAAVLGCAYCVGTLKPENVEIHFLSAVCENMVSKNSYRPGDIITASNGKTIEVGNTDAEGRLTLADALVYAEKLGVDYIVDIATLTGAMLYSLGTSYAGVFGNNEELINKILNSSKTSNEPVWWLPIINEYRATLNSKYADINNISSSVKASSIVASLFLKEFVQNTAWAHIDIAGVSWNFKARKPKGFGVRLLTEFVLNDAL

DNA dC->dU-editing enzyme APOBEC-3A, sequence (P31941 whole entry, the tested form may be a part): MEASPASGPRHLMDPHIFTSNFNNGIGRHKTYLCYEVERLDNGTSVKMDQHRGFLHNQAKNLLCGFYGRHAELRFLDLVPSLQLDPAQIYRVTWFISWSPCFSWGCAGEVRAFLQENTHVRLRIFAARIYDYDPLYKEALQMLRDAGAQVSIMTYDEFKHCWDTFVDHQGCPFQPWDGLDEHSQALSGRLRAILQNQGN
DNA dC->dU-editing enzyme APOBEC-3G, sequence (Q9HC16 whole entry): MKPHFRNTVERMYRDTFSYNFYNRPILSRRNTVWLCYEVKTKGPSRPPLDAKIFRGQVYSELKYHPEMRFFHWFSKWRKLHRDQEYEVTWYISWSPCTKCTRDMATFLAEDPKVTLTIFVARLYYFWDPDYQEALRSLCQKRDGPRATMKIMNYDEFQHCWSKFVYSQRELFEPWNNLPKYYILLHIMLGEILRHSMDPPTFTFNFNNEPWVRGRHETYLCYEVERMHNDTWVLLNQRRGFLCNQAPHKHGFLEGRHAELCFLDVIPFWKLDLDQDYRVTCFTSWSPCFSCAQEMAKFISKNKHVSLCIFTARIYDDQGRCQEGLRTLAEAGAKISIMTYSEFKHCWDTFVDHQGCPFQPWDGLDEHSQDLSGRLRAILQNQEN
Bifunctional protein GlmU, sequence (P9WMN3 whole entry): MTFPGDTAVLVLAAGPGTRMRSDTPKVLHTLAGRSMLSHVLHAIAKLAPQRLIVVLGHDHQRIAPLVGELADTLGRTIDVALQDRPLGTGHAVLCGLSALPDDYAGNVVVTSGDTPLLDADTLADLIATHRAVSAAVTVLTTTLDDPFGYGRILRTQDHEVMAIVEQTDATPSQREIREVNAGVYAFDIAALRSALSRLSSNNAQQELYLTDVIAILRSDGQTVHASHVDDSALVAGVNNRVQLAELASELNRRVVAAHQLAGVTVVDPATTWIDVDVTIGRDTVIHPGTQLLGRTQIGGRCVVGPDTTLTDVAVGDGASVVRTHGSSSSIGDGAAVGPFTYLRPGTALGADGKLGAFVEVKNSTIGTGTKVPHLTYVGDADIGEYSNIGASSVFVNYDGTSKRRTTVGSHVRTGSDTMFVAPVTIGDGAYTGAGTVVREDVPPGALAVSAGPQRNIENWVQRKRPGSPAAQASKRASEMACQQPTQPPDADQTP
Protein-tyrosine kinase 2-beta, sequence (Q14289 whole entry): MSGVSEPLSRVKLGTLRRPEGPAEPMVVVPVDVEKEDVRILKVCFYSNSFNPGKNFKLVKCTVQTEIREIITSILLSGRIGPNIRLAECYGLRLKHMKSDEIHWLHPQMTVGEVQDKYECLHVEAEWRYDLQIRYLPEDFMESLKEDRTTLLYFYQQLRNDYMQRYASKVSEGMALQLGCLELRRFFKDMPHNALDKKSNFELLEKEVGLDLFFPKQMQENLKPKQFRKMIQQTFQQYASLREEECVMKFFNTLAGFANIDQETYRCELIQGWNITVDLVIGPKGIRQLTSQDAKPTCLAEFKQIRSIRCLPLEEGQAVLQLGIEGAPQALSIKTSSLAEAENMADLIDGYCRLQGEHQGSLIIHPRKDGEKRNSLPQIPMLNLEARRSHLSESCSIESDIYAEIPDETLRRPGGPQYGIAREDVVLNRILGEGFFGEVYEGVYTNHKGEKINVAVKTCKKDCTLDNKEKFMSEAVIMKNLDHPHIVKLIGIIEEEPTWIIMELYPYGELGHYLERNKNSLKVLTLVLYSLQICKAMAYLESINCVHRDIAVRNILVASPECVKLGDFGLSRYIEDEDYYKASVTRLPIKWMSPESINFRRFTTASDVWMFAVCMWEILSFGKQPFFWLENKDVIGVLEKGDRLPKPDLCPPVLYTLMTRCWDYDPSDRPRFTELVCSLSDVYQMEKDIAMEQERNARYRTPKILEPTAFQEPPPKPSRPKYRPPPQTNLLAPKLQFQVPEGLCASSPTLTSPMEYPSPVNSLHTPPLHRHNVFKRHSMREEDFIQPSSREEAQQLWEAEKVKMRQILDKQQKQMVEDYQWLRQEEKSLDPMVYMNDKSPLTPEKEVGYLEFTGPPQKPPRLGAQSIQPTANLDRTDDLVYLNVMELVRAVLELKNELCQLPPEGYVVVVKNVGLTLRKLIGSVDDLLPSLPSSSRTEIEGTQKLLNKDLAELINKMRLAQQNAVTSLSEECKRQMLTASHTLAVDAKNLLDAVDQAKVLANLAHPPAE
Cytochrome P450 2C9, sequence (P11712 whole entry): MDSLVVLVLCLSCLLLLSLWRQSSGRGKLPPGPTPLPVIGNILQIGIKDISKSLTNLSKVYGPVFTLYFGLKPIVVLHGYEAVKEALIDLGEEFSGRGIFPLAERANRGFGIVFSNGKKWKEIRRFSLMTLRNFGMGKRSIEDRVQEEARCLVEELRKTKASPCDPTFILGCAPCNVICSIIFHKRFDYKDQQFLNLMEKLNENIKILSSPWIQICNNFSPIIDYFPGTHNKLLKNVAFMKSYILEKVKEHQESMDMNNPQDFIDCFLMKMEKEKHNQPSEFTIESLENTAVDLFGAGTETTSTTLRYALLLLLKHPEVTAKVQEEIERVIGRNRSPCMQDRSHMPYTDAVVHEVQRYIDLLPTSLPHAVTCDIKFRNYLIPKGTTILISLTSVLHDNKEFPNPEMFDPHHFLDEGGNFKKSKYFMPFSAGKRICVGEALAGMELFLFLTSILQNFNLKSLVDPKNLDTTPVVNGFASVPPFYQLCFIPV
Cytochrome P450 2C19, sequence (P33261 whole entry): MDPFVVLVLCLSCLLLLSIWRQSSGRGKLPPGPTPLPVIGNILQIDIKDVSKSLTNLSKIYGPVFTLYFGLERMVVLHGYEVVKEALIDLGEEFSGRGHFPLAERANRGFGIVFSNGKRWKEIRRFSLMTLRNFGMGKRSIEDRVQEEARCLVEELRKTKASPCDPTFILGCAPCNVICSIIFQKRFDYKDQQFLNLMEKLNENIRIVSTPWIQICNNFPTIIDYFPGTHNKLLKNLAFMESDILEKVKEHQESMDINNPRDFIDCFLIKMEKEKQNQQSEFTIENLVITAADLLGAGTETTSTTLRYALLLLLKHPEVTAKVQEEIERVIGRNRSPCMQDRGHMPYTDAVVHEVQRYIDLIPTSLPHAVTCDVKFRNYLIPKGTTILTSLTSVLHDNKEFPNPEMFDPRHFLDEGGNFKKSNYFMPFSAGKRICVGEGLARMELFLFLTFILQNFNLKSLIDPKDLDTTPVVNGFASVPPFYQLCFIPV

N#Cc1ccccc1/C=N/Nc1nc(-c2ccccc2)c2cc(Cl)ccc2n1
AC50 (Cytochrome P450 2C9): 2.24 µM (inconclusive) | AC50 (Cytochrome P450 1A2): 7.08 µM (inconclusive) | IC50 [1]: > 69.5 µM (not active) | AC50 (Cytochrome P450 2C19): 25.1 µM (inconclusive)

S=C(Nc1ccc(Oc2ccccc2)cc1)NC1CCCCC1
CC50 [2]: 30.1 µM (active)

O=[N+]([O-])c1cccc(/C=C/c2nc3cc([N+](=O)[O-])ccc3[nH]2)c1
IC50 [1]: 20 µM (not active)

COC(=O)COc1cccc2c(=O)n(CC(=O)NCc3ccc(F)cc3)ccc12
IC50 [3]: 1.14 µM (active)

c1ccc2c(c1)Sc1ccccc1N2CC1CN2CCC1CC2 (stereo not given) [MEQUITAZINE]
IC50 [4]: > 20 µM (inactive) | IC50 [5]: > 40 µM (inactive) | IC50 [6]: > 20 µM (inactive) | IC50 [7]: > 20 µM (inactive) | IC50 [8]: > 20 µM (inactive) | IC50 [9]: 5.43 µM (inactive) | IC50 [10]: 8.46 µM (inactive) | IC50 [11]: > 20 µM (inactive) | IC50 [12]: > 40 µM (inactive) | IC50 [13]: > 20 µM (inactive)

O=C(/C(=N/N=C/c1ccc(O)c(O)c1)c1ccccc1)c1ccccc1
EC50 [14]: > 260 µM (inactive) | IC50 [3]: 1.8 µM (active)

Cc1cc(/C=N/NC(=O)c2cccc(N(C)C)c2)c(C)n1-c1cc(C(=O)O)cc(C(=O)O)c1
AC50 [15]: > 20 µM (inactive) | IC50 [16]: 166 µM (active) | IC50 [17]: 9.31 µM (active) | IC50 [18]: 2.07 µM (active) | EC50 [19]: > 300 µM (not active) | IC50 [20]: 20.6 µM (active)

C[N+]12CCC(CC1)C(C#N)(N1CCOCC1)C2 (stereo not given)
IC50 [21]: > 50 µM (not active) | IC50 [17]: 4.57 µM (active) | IC50 [20]: 4.38 µM (active)

O=C(Nc1ccc(Oc2ccc(C(=O)O)c(C(=O)O)c2)cc1)c1cccs1
IC50 [16]: 97.3 µM (active) | IC50 (Leucine aminopeptidase): 30.7 µM (active)
